Consider eleven compounds from patent EP4722207A1, “OXOISOINDOLINYL-SUBSTITUTED TETRAHYDROPYRIMIDINEDIONE DERIVATIVE AND USE THEREOF” (Gluetacs Therapeutics (Shanghai) Co., Ltd., priority 2023, dated 2024).

Assay type in all cases: cell-based
Holding throughout (details): compounds at 50 nM and 500 nM, 24 hours

For one test, the target named is T1, WEE1 (Homo sapiens, UniProt P30291+Q96SW2).
T1 construct: effects of the compounds of the present disclosure on the expression of target proteins in cells; endogenous in cells; host or cells: human PBMCs (hPBMCs)
Kind of test: Western-blot assay, substrate protein degradation in hPBMCs: WEE1. Here is the method: (§1) Conventional Western blot assay was performed to evaluate the effects of the compounds of the present disclosure on the expression of target proteins in cells. • (1) Cell Seeding and Protein Harvesting: Human peripheral blood mononuclear cells (hPBMCs) at a density of 1x10^6 cells/mL were thawed according to the PBMC Recovery Protocol (Milecell Biotechnologies Inc, Shanghai). […] After 24 hours of compounds treatment, cells were harvested and lysed in RIPA protein lysate containing protease inhibitors on ice for 30 min, followed by centrifugation. The supernatant was aspirated as the extracted total cell protein. The protein concentration of the supernatant was determined using the conventional BCA (Bicinchoninic Acid) assay. • (2) To the collected supernatant, 5X SDS sample loading buffer was added, followed by denaturation at 95°C for 5 minutes. The denatured samples were then separated by SDS-PAGE electrophoresis on a polyacrylamide gel. Proteins were transferred to a nitrocellulose membrane (0.45 µm NC membrane), blocked with blocking buffer at room temperature for 1 hour, and subjected to antibody incubation and development procedures according to the antibody manufacturer's instructions (Cell Signaling Technology).
(§2) Half-Maximal Degradation Concentration value (the drug concentration required for degrading proteins by 50%, abbreviated as DC50) reads method: comparing the grayscale values of Western blot bands from drug-treated samples with those from blank DMSO-treated controls, and identifying the drug concentration range at which the grayscale value is half that of the DMSO-treated control bands.
(§3) DC50 values can be calculated using ImageJ software to measure grayscale values of Western blot bands from drug-treated samples. The concentration-response curve is fitted to estimate the drug concentration corresponding to half the grayscale value.
(§4) Target protein remaining (%) refers to the percentage of target protein remaining in cells after treatment with protein degrader compounds.
(§5) Calculation method for target protein remaining (%): Use ImageJ software to measure grayscale values of Western blot bands from drug (protein degrader)-treated samples. The grayscale value of drug-treated bands is divided by that of internal control protein bands, and the resulting quotient is normalized to obtain the relative percentage of remaining target protein after protein degrader treatment. Target protein degradation rate(%) = 1−target protein remaining(%). [formula]

The target of a further test is T2, IKZF1 (Homo sapiens, UniProt Q13422+Q96SW2).
T2 construct: effects of the compounds of the present disclosure on the expression of target proteins in cells; endogenous in cells; host or cells: human PBMCs (hPBMCs)
The test is described as follows: Western-blot assay, substrate protein degradation in hPBMCs: IKZF1. Here is the method: as §1, §2, §3, §4, §5

The next test addresses T3, IKZF2 (Homo sapiens, UniProt Q96SW2+Q9UKS7).
T3 construct: effects of the compounds of the present disclosure on the expression of target proteins in cells; endogenous in cells; host or cells: human PBMCs (hPBMCs)
Kind of test: Western-blot assay, substrate protein degradation in hPBMCs: IKZF2. The protocol: as §1, §2, §3, §4, §5

Another test addresses T4, IKZF3 (Homo sapiens, UniProt Q96SW2+Q9UKT9).
T4 construct: effects of the compounds of the present disclosure on the expression of target proteins in cells; endogenous in cells; host or cells: human PBMCs (hPBMCs)
Kind of test: Western-blot assay, substrate protein degradation in hPBMCs: IKZF3. Here is the method:
as §1, §2, §3, §4, §5

In another test the target is T5, CK1α (Homo sapiens, UniProt P48729+Q96SW2).
T5 construct: effects of the compounds of the present disclosure on the expression of target proteins in cells; endogenous in cells; host or cells: human PBMCs (hPBMCs)
Kind of test: Western-blot assay, substrate protein degradation in hPBMCs: CK1α. The protocol: as §1, §2, §3, §4, §5

In a further test the target is T6, GSPT1 (Homo sapiens, UniProt P15170+Q96SW2).
T6 construct: effects of the compounds of the present disclosure on the expression of target proteins in cells; endogenous in cells; host or cells: human PBMCs (hPBMCs)
Kind of test: Western-blot assay, substrate protein degradation in hPBMCs: GSPT1. The protocol: as §1, §2, §3, §4, §5

T3 sequence (Q9UKS7 whole entry): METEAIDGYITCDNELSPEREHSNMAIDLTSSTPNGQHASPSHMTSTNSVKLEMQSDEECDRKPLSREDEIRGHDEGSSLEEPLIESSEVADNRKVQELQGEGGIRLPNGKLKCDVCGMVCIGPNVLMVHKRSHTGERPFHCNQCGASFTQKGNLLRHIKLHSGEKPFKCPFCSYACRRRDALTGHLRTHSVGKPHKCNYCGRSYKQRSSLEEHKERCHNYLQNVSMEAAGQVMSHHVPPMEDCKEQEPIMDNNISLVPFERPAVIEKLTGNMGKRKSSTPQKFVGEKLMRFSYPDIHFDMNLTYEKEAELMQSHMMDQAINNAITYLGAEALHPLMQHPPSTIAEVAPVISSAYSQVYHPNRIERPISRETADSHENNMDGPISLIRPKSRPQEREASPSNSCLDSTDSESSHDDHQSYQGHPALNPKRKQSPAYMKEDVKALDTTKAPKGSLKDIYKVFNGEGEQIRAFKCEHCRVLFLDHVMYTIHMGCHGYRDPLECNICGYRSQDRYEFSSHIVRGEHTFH
T3 sequence (Q96SW2 whole entry): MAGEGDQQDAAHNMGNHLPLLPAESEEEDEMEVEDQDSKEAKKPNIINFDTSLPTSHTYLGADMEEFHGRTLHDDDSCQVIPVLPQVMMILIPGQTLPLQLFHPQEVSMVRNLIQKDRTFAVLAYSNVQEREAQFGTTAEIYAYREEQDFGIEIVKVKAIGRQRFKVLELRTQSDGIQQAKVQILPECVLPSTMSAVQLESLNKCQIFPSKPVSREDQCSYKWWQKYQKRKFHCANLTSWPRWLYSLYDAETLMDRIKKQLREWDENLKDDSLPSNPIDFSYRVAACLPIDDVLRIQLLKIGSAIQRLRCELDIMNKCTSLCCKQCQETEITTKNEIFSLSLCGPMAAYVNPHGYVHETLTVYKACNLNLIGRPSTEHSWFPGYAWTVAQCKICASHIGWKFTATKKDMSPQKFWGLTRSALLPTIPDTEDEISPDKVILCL
T3 sequence (Q16531 whole entry partner): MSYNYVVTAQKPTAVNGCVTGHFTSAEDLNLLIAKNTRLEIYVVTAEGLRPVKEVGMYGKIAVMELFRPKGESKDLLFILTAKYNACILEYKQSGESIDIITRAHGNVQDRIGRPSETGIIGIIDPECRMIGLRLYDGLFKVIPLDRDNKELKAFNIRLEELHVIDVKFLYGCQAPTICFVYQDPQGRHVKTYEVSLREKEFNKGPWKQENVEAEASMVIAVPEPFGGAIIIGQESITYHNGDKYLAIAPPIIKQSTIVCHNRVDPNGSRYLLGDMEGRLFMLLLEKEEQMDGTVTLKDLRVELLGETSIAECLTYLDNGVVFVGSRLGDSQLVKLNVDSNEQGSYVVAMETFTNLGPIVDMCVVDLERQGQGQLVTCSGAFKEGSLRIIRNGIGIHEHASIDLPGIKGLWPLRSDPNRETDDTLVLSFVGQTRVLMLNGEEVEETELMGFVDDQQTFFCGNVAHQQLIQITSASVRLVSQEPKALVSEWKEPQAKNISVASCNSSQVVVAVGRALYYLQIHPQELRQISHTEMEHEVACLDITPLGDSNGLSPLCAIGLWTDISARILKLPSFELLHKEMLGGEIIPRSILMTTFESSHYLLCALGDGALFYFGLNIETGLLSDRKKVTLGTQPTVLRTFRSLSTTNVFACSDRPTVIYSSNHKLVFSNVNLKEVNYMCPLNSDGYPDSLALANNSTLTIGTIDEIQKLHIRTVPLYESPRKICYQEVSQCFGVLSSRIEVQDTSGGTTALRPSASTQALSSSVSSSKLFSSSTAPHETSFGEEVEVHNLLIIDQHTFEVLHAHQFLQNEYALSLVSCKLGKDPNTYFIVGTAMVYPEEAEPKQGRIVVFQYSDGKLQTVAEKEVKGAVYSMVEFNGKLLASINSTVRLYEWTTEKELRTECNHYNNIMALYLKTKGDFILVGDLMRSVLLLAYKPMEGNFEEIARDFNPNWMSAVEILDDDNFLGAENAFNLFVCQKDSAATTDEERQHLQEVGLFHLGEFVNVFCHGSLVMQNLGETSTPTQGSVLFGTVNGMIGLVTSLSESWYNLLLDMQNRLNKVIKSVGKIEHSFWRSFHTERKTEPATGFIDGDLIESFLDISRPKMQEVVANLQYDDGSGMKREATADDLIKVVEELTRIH
T1 sequence (P30291 whole entry): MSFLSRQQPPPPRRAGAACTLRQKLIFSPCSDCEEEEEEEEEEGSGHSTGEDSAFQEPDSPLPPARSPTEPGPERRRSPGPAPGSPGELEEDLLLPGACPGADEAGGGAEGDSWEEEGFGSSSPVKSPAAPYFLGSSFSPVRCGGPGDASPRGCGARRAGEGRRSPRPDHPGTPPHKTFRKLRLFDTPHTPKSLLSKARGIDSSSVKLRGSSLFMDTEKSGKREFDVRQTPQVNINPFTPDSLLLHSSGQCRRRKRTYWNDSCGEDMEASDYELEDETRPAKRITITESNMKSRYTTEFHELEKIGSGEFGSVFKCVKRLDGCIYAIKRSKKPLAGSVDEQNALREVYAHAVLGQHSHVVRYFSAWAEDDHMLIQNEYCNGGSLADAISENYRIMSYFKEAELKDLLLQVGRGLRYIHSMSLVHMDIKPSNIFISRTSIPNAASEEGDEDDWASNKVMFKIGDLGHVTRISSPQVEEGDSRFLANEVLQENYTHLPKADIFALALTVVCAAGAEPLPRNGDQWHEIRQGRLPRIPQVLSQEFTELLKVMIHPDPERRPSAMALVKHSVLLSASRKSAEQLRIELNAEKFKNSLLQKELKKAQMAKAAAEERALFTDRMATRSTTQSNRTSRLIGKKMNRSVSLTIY
T1 sequence (Q96SW2 whole entry): as the sequence (Q96SW2 whole entry) above
T1 sequence (Q16531 whole entry partner): as the sequence (Q16531 whole entry partner) above
T4 sequence (Q9UKT9 whole entry): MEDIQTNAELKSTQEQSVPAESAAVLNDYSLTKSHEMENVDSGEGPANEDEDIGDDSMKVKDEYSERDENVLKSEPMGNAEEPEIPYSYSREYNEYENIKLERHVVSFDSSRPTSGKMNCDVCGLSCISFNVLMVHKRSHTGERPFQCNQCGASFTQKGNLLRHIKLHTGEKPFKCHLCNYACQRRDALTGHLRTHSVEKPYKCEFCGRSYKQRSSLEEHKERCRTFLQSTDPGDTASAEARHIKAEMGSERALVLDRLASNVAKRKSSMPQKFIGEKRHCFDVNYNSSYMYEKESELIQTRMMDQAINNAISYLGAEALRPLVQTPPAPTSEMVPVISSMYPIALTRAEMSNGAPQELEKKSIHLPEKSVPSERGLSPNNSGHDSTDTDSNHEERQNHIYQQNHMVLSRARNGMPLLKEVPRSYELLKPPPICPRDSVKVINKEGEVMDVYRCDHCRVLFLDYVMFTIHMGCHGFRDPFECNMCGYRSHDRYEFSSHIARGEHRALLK
T4 sequence (Q96SW2 whole entry): as the sequence (Q96SW2 whole entry) above
T4 sequence (Q16531 whole entry partner): as the sequence (Q16531 whole entry partner) above
T6 sequence (P15170 whole entry): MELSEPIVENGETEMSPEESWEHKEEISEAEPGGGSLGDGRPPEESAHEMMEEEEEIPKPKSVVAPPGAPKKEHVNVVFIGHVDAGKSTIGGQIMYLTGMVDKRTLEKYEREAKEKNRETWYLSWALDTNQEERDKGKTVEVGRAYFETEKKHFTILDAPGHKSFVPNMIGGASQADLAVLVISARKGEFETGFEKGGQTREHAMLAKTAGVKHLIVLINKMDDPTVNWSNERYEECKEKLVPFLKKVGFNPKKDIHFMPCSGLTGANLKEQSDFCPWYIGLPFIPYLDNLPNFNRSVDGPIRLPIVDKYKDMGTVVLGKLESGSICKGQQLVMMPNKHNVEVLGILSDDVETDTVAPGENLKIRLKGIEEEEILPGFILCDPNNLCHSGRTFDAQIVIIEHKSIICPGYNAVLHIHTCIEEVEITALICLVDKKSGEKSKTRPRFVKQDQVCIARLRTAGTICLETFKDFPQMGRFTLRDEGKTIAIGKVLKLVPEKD
T6 sequence (Q96SW2 whole entry): as the sequence (Q96SW2 whole entry) above
T6 sequence (Q16531 whole entry partner): as the sequence (Q16531 whole entry partner) above
T2 sequence (Q13422 whole entry): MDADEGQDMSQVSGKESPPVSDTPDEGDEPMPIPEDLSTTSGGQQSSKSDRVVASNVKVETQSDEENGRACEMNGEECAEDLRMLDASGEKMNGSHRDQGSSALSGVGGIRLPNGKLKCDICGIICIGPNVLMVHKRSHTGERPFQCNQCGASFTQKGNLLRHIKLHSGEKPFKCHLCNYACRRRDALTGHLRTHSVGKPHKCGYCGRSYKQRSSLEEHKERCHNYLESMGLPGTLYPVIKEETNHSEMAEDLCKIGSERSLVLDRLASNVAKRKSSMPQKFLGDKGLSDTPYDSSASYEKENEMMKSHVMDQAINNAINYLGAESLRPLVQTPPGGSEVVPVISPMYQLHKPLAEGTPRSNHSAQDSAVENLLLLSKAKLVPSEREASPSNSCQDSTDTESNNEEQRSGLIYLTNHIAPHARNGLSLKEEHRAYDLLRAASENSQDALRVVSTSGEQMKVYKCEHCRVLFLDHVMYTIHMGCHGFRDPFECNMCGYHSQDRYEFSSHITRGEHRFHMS
T2 sequence (Q96SW2 whole entry): as the sequence (Q96SW2 whole entry) above
T2 sequence (Q16531 whole entry partner): as the sequence (Q16531 whole entry partner) above

Regarding `O=C1CCN(N2C(=O)c3ccc(CN4CCN(c5cccc(Cl)c5Cl)CC4)cc3C2=O)C(=O)N1` [GT-04854, 5-((4-(2,3-dichlorophenyl)piperazin-1-yl)methyl)-2-(2,4-dioxotetrahydropyrimidin-1(2H)-yl)isoindoline-1,3-dione], at WEE1, the “WEE1 substrate protein remaining %” value was “A ("A" is defined as 0% ≤ substrate protein remaining % ≤ 80%)”. Besides, the “IKZF1 substrate protein remaining %” value at IKZF1 is recorded as “A ("A" is defined as 0% ≤ substrate protein remaining % ≤ 80%)”. Moreover, the “IKZF2 substrate protein remaining %” value on IKZF2 is on record as “A ("A" is defined as 0% ≤ substrate protein remaining % ≤ 80%)”. The “IKZF3 substrate protein remaining %” value on IKZF3 is on record as “B ("B" is defined as 80%< substrate protein remaining %≤ 100%)”. Also, the “CK1α substrate protein remaining %” value on CK1α is listed as “B ("B" is defined as 80%< substrate protein remaining %≤ 100%)”. Further, the “GSPT1 substrate protein remaining %” value on GSPT1 was “A ("A" is defined as 0% ≤ substrate protein remaining % ≤ 80%)”.
`O=C1CCN(N2Cc3cc(CN4CCC(c5noc6cc(F)ccc56)CC4)ccc3C2=O)C(=O)N1` [GT-04864, 1-(5-((4-(6-fluorobenzo[d]isoxazol-3-yl)piperidin-1-yl)methyl)-1-oxoisoindolin-2-yl)dihydropyrimidine-2,4(1H,3H)-dione]: the “WEE1 substrate protein remaining %” value at WEE1 was “B ("B" is defined as 80%< substrate protein remaining %≤ 100%)”. Further, the “IKZF1 substrate protein remaining %” value on IKZF1 was “A ("A" is defined as 0% ≤ substrate protein remaining % ≤ 80%)”. The “IKZF2 substrate protein remaining %” value at IKZF2 is recorded as “B ("B" is defined as 80%< substrate protein remaining %≤ 100%)”. Besides, the “IKZF3 substrate protein remaining %” value on IKZF3 is reported as “B ("B" is defined as 80%< substrate protein remaining %≤ 100%)”. The “CK1α substrate protein remaining %” value on CK1α is on record as “B ("B" is defined as 80%< substrate protein remaining %≤ 100%)”. Besides, on GSPT1, the “GSPT1 substrate protein remaining %” value is given as “A ("A" is defined as 0% ≤ substrate protein remaining % ≤ 80%)”.
Regarding `O=C1CCN(N2Cc3cc(CN4CCN(c5ncccc5C(F)(F)F)CC4)ccc3C2=O)C(=O)N1` [GT-05174, 1-(1-oxo-5-((4-(3-(trifluoromethyl)pyridin-2-yl)piperazin-1-yl)methyl)isoindolin-2-yl)dihydropyrimidine-2,4(1H,3H)-dione], on IKZF1, the “IKZF1 substrate protein remaining %” value is “B ("B" is defined as 80%< substrate protein remaining %≤ 100%)”. In addition, at IKZF3, the “IKZF3 substrate protein remaining %” value is reported as “B ("B" is defined as 80%< substrate protein remaining %≤ 100%)”. Moreover, at CK1α, the “CK1α substrate protein remaining %” value is recorded as “B ("B" is defined as 80%< substrate protein remaining %≤ 100%)”.
In the case of `O=C1CCN(N2Cc3cc(CN4CCN(c5cccc(C(F)(F)F)n5)CC4)ccc3C2=O)C(=O)N1` [GT-05175, 1-(1-oxo-5-((4-(6-(trifluoromethyl)pyridin-2-yl)piperazin-1-yl)methyl)isoindolin-2-yl)dihydropyrimidine-2,4(1H,3H)-dione], at WEE1, the “WEE1 substrate protein remaining %” value is “A ("A" is defined as 0% ≤ substrate protein remaining % ≤ 80%)”. At IKZF1, the “IKZF1 substrate protein remaining %” value is reported as “B ("B" is defined as 80%< substrate protein remaining %≤ 100%)”. For the same compound, the “IKZF2 substrate protein remaining %” value on IKZF2 is reported as “B ("B" is defined as 80%< substrate protein remaining %≤ 100%)”. Moreover, the “GSPT1 substrate protein remaining %” value at GSPT1 is given as “A ("A" is defined as 0% ≤ substrate protein remaining % ≤ 80%)”.
In the case of `O=C1CCN(N2Cc3cc(CN4CCN(c5ccc(C(F)(F)F)cn5)CC4)ccc3C2=O)C(=O)N1` [GT-05176, 1-(1-oxo-5-((4-(5-(trifluoromethyl)pyridin-2-yl)piperazin-1-yl)methyl)isoindolin-2-yl)dihydropyrimidine-2,4(1H,3H)-dione], the “IKZF1 substrate protein remaining %” value at IKZF1 is recorded as “B ("B" is defined as 80%< substrate protein remaining %≤ 100%)”. In addition, the “IKZF2 substrate protein remaining %” value at IKZF2 is listed as “B ("B" is defined as 80%< substrate protein remaining %≤ 100%)”. The “CK1α substrate protein remaining %” value at CK1α is “B ("B" is defined as 80%< substrate protein remaining %≤ 100%)”.
With `O=C1CCN(N2C(=O)c3ccc(CN4CCN(c5ccccn5)CC4)cc3C2=O)C(=O)N1` [GT-05351, 2-(2,4-dioxotetrahydropyrimidin-1(2H)-yl)-5-((4-(pyridin-2-yl)piperazin-1-yl)methyl)isoindoline-1,3-dione], the “IKZF1 substrate protein remaining %” value on IKZF1 is listed as “B ("B" is defined as 80%< substrate protein remaining %≤ 100%)”. The “IKZF2 substrate protein remaining %” value at IKZF2 is on record as “A ("A" is defined as 0% ≤ substrate protein remaining % ≤ 80%)”. In addition, on IKZF3, the “IKZF3 substrate protein remaining %” value is on record as “B ("B" is defined as 80%< substrate protein remaining %≤ 100%)”. Also, at CK1α, the “CK1α substrate protein remaining %” value was “B ("B" is defined as 80%< substrate protein remaining %≤ 100%)”.
Take `O=C1CCN(N2C(=O)c3ccc(CN4CCN(c5cccc(Cl)n5)CC4)cc3C2=O)C(=O)N1` [GT-05353, 5-((4-(6-chloropyridin-2-yl)piperazin-1-yl)methyl)-2-(2,4-dioxotetrahydropyrimidin-1(2H)-yl)isoindoline-1,3-dione]: the “IKZF1 substrate protein remaining %” value on IKZF1 is recorded as “B ("B" is defined as 80%< substrate protein remaining %≤ 100%)”. In addition, the “IKZF2 substrate protein remaining %” value at IKZF2 was “B ("B" is defined as 80%< substrate protein remaining %≤ 100%)”. The “IKZF3 substrate protein remaining %” value on IKZF3 was “B ("B" is defined as 80%< substrate protein remaining %≤ 100%)”. The “CK1α substrate protein remaining %” value at CK1α is “B ("B" is defined as 80%< substrate protein remaining %≤ 100%)”. Further, the “GSPT1 substrate protein remaining %” value on GSPT1 is listed as “A ("A" is defined as 0% ≤ substrate protein remaining % ≤ 80%)”.
In the case of `O=C1CCN(N2C(=O)c3ccc(CN4CCN(c5cc(Cl)ccn5)CC4)cc3C2=O)C(=O)N1` [GT-05354, 5-((4-(4-chloropyridin-2-yl)piperazin-1-yl)methyl)-2-(2,4-dioxotetrahydropyrimidin-1(2H)-yl)isoindoline-1,3-dione], the “IKZF1 substrate protein remaining %” value at IKZF1 is “B ("B" is defined as 80%< substrate protein remaining %≤ 100%)”. The “CK1α substrate protein remaining %” value at CK1α was “B ("B" is defined as 80%< substrate protein remaining %≤ 100%)”. Further, the “GSPT1 substrate protein remaining %” value on GSPT1 is recorded as “A ("A" is defined as 0% ≤ substrate protein remaining % ≤ 80%)”.
`O=C1CCN(N2C(=O)c3ccc(CN4CCN(c5ncccc5F)CC4)cc3C2=O)C(=O)N1` [GT-05355, 2-(2,4-dioxotetrahydropyrimidin-1(2H)-yl)-5-((4-(3-fluoropyridin-2-yl)piperazin-1-yl)methyl)isoindoline-1,3-dione]: the “WEE1 substrate protein remaining %” value at WEE1 was “B ("B" is defined as 80%< substrate protein remaining %≤ 100%)”. In addition, the “IKZF1 substrate protein remaining %” value at IKZF1 was “B ("B" is defined as 80%< substrate protein remaining %≤ 100%)”. Moreover, the “IKZF3 substrate protein remaining %” value on IKZF3 is “B ("B" is defined as 80%< substrate protein remaining %≤ 100%)”. Also, the “CK1α substrate protein remaining %” value at CK1α was “B ("B" is defined as 80%< substrate protein remaining %≤ 100%)”. The “GSPT1 substrate protein remaining %” value at GSPT1 is on record as “A ("A" is defined as 0% ≤ substrate protein remaining % ≤ 80%)”.
As for `O=C1CCN(N2Cc3cc(CN4CCN(c5ncc(Cl)cc5Cl)CC4)ccc3C2=O)C(=O)N1` [GT-05356, 1-(5-((4-(3,5-dichloropyridin-2-yl)piperazin-1-yl)methyl)-1-oxoisoindolin-2-yl)dihydropyrimidine-2,4(1H,3H)-dione], at IKZF1, the “IKZF1 substrate protein remaining %” value is “B ("B" is defined as 80%< substrate protein remaining %≤ 100%)”. The “IKZF3 substrate protein remaining %” value on IKZF3 was “B ("B" is defined as 80%< substrate protein remaining %≤ 100%)”. Also, the “CK1α substrate protein remaining %” value at CK1α is reported as “B ("B" is defined as 80%< substrate protein remaining %≤ 100%)”.
In the case of `O=C1CCN(N2Cc3cc(CN4CCN(c5nccc(F)c5F)CC4)ccc3C2=O)C(=O)N1` [GT-05357, 1-(5-((4-(3,4-difluoropyridin-2-yl)piperazin-1-yl)methyl)-1-oxoisoindolin-2-yl)dihydropyrimidine-2,4(1H,3H)-dione], the “IKZF1 substrate protein remaining %” value at IKZF1 is “B ("B" is defined as 80%< substrate protein remaining %≤ 100%)”. The “IKZF2 substrate protein remaining %” value at IKZF2 is “B ("B" is defined as 80%< substrate protein remaining %≤ 100%)”. For the same compound, at IKZF3, the “IKZF3 substrate protein remaining %” value is “B ("B" is defined as 80%< substrate protein remaining %≤ 100%)”. Besides, the “CK1α substrate protein remaining %” value on CK1α was “B ("B" is defined as 80%< substrate protein remaining %≤ 100%)”.
